Data published in PMC6994123, “A mosquito juvenile hormone binding protein (mJHBP) regulates the activation of innate immune defenses and hemocyte development” (PLoS Pathogens, 2020).

Key:
[1] = molecular target: T1, mJHBP (Aedes aegypti, UniProt Q16Y94); test: isothermal titration calorimetry, single-site fit; type: binding; conditions: read-out: Ka
T1 construct: gene 5570847; two OBP domains; gel filtration, Q-Sepharose and Phenyl-Sepharose purified; probably mature protein
T1 sequence (Q16Y94 25-311): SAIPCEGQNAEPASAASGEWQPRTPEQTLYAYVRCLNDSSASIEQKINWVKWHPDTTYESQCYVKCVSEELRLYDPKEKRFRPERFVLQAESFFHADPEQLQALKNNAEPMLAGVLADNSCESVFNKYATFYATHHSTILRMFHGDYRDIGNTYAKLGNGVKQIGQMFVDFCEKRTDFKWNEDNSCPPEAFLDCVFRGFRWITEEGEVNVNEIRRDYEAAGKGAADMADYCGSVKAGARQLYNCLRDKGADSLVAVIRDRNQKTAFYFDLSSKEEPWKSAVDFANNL
From the text: isothermal titration calorimetry, single-site fit on mJHBP | wild type mJHBP.

[2] = molecular target: T2, mJHBP (Aedes aegypti, UniProt Q16Y94, Y152F); test: isothermal titration calorimetry, single-site fit; type: binding; conditions: read-out: Ka (converted)
T2 construct: gene 5570847; two OBP domains; gel filtration, Q-Sepharose and Phenyl-Sepharose purified; probably mature protein
T2 sequence (Q16Y94 25-311 Y152F): T1 sequence (Q16Y94 25-311)
From the text: isothermal titration calorimetry, single-site fit on mJHBP | Y129F mutant.

**Q.** Which Kd [1] does the source give for `COC(=O)/C=C(\C)CC/C=C(\C)CC[C@H]1OC1(C)C` [JH III, juvenile hormone III] here?
**A.** 0.1 µM

**Q.** What about the Kd [2] of the same molecule?
**A.** 1.09 µM
